One assay relates to Herpes simplex, type I. In words: cells. In kind it is cell-based, Herpes simplex virus. The note with it: Chlorocebus sabaeus, BSC-1, 72 h, read-out: Percent Plaque Inhibition.
A further assay relates to Pseudorabies Virus. In words: microbe, parasite or virus in culture. In kind it is cell-based. Conditions: Suid alphaherpesvirus 1, BSC-1, in Chlorocebus sabaeus, 72 h, read-out: Percent Plaque Inhibition.
Another assay concerns CA-755 adenocarcinoma. In words: Oncolytic activity in tumor system CA-755 adenocarcinoma. In kind it is in vivo.
The test system of a further assay is 6C3HED lymphosarcoma. In words: Oncolytic activity in tumor system 6C3HED lymphosarcoma. In kind it is in vivo.
Assay [1] concerns L1210V lymphocytic leukemia. In words: Oncolytic activity in tumor system L1210V lymphocytic leukemia. Format: in vivo.
The test system of assay [2] is P1534J lymphatic leukemia. In words: Oncolytic activity in tumor system P1534J lymphatic leukemia. In kind it is in vivo.
Assay [3] relates to X5563 plasma cell myeloma. The assay can be described thus: Oncolytic activity in tumor system X5563 plasma cell myeloma. Format: in vivo.

For `Cc1cn(C2O[C@H](CO)[C@@H](O)C2(F)F)c(=O)[nH]c1=O` (some centres unmarked) [DFAT, 1-(5-methyl-2,4-dioxo-1H,3H-pyrimidin-1-yl)-2-desoxy-2,2-difluororibose], in the assay on Herpes simplex, type I, the inhibition at 0.39 µg/mL was 4%, the inhibition at 0.78 µg/mL came out at 8%, the inhibition at 1.56 µg/mL was 0% and the inhibition at 3.12 µg/mL was determined as 12%. In the assay on Herpes simplex, type I, the inhibition at 6.25 µg/mL worked out at 15%, the inhibition at 12.5 µg/mL worked out at 35%, the inhibition at 25 µg/mL is 53% and the inhibition at 50 µg/mL came to 72%. Further, the inhibition at 100 µg/mL in the assay with Herpes simplex, type I worked out at 96%. Also, in the assay on Pseudorabies Virus, the inhibition at 3 µg/mL stood at 5%, the inhibition at 6 µg/mL was 6%, the inhibition at 12 µg/mL worked out at 12% and the inhibition at 25 µg/mL came out at 15%. Besides, in the assay on Pseudorabies Virus, the inhibition at 50 µg/mL was 18% and the inhibition at 100 µg/mL was determined as 23%.
As for `Nc1ccn(C2O[C@H](CO)[C@@H](O)C2(F)F)c(=O)n1` (some centres unmarked) [Example 8, 1-(2-oxo-4-amino-1H-pyrimidin-1-yl)-2-desoxy-2,2-difluororibose], the oncolytic activity result (in the assay on CA-755 adenocarcinoma; with 6C3HED lymphosarcoma; in assay [1]; in assay [2]; in assay [3]) was “demonstrated activity” each time.

Usually inhibition stands for the change of the read-out against control, counted positive when it falls.

Values taken from patent US4808614A (priority 1987, dated 1989).
